Measurements from paper PMC4537050, “A long pentraxin-3-derived pentapeptide for the therapy of FGF8b-driven steroid hormone-regulated cancers” (Oncotarget, 2015).

Legend:
FGF8b = molecular target: T1, FGF8b (Homo sapiens, UniProt P55075); test: SPR analysis of peptide binding to immobilized FGF8b; design: purchased PeproTech; conditions: for Kd / FGF8b binding (Kd): SPR, immobilized FGF8b, mean ± SEM; for FGF8b binding activity (in words): SPR on the FGF8b-coated sensor chip
T1 sequence (P55075 23-215 isoform P55075-3 limits assumed): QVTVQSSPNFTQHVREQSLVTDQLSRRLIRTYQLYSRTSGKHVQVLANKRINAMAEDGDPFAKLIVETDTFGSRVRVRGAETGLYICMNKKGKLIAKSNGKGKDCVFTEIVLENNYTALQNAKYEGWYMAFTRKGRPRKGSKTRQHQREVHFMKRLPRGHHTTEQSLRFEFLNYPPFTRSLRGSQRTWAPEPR
Method: A BIAcore X-100 apparatus (BIAcore Inc., Piscataway, NJ, USA) was used to set up the following experimental models. ARPCA and all the peptides mentioned in the present work were analyzed for their capacity to directly bind to immobilized FGF8b. To this purpose, FGF8b (20 μg/ml in 10 mM sodium acetate, pH 6.0) was allowed to react with a flow cell of a CM5 sensor chip that was previously activated with a mixture of 0.2 M N-ethyl-N′-(3-dimethylaminopropyl)-carbodiimide hydrochloride and 0.05 M N-hydroxysuccinimide (35 μl, flow rate 10 μl/min). After ligand immobilization, matrix neutralization was performed with 1.0 M ethanolamine (pH 8.5) (35 μl, flow rate 10 μl/min) and the activated/deactivated dextran was used as reference (control) system. Increasing concentrations of ARPCA (ranging between 8 μM and 2000 μM) were injected over the FGF8b-coated sensor chip and the response was recorded as a function of time tracking the SPR intensity change upon binding progression. Injection lasted for 4 min (flow rate 30 μl/min) to allow peptide association to immobilized FGF8b and was followed by 10 min of dissociation; each run was performed in HBS and the sensor chip was regenerated with 10 mM NaOH. […] Binding isotherm points were fitted with the Langmuir equation for monovalent binding. This allowed to evaluate the mass surface dissociation constant, Kd, and the scaling parameter that relates the SPR signal with the extent of binding, as the free parameters of the fitting. The errors on these parameters were assigned as a result of the fitting algorithm (95% confidence bounds). The best-fitting procedure was performed with the SigmaPlot 11.0 software package (Systat Software Inc.). Others FGFs were dissolved in 10mM sodium acetate at optimal pH, immobilized on CM5 sensorchips and tested for their capacity to bind ARPCA as described above.

[1] = test system: S115 cells grafted onto the chick embryo CAM; test: CAM assay with DHT-treated S115 cell grafts; assay type: in vivo; conditions: 2.5 × 10^4 cells/embryo; ARPCA 80 or 140 pmoles/embryo, ARPVA 140 pmoles/embryo; day 14
Method: (§1) Alginate plugs containing vehicle, FGF8b (4.5 pmoles/embryo), VEGF-A (4.5 pmoles/embryo) or S115 cells (2.5×10^4/embryo) in the absence or presence of ARPCA (80 or 140 pmoles/embryo) or ARPVA (140 pmoles/embryo) were placed on the CAM of fertilized white leghorn chicken eggs at day 11 of incubation. At day 14, newly formed blood microvessels converging toward the implant were counted by two observers in a double-blind fashion at 5x magnification under a stereomicroscope (STEMI-SR, x2/0.12; Zeiss) as described.

[2] = test system: chick embryo chorioallantoic membrane (CAM); test: Chick embryo CAM assay with growth factor alginate implants; assay type: in vivo; conditions: 4.5 pmoles FGF8b/plug; ARPCA 80 or 140 pmoles, ARPVA 140 pmoles; vessels counted at day 14
Method: as §1

HUVECs = test: HUVEC proliferation in response to FGF8b; assay type: cell-based, human; conditions: 30 ng/ml FGF8b, 48 h, concentrations as high as 300 μM
Method: (§2) HUVECs were seeded at 18000 cells/cm^2 in medium containing 2.5% FBS and stimulated with 30 ng/ml FGF8b in the absence or presence of increasing concentrations of ARPCA or ARPVA. S115 cells were seeded at 15000 cells/cm^2 in medium containing 4% hormone-deprived dextran-coated charcoal-stripped heat inactivated FBS, followed by 24 h serum starvation in 1:1 mixture of serum-free Ham's F12 and DMEM. Cells were stimulated for 48 h with 30 ng/ml FGF8b or 10 nM DHT in the presence or absence of different concentrations of ARPCA or ARPVA (as specified in the corresponding figures). Viable cell counts were obtained by the counting function of the MACSQuant® Analyzer (Miltenyi Biotec, Bergisch-Gladbach, Germany, EU).

S115 cells = test: S115 cell proliferation assay; assay type: cell-based, mouse; conditions: 30 ng/ml FGF8b or 10 nM DHT, 48 h, viable cell counting
Method: as §2

Substance	Kd (FGF8b)	FGF8b binding activity (in words) (FGF8b)	other results
Ac-APCRA-NH2 [Ac-APCRA-NH2]	> 3 mM	–	–
Ac-ARACA-NH2 [Ac-ARACA-NH2]	> 3 mM	activity was lost	–
Ac-ARGCA-NH2 [Ac-ARGCA-NH2]	> 3 mM	activity was lost	–
Ac-ARPCG-NH2 [Ac-ARPCG-NH2]	1.9 ± 0.2 mM	dramatically reduced	–

More lines, main results first:

Kd (FGF8b)	FGF8b binding activity (in words) (FGF8b)	Substance	other results
> 3 mM	activity was lost	Ac-ARPMA-NH2 [Ac-ARPMA-NH2]	–
–	activity was lost	Ac-ARPSA-NH2 [Ac-ARPSA-NH2]	FGF8b binding (Kd) (FGF8b): nb
–	activity was lost	Ac-ARPVA-NH2 [Cys4-replaced ARPCA pentapeptide mutant used as a negative control, reference compound]	neovascular response elicited by DHT-pretreated S115 cells on the CAM [1]: no effect; angiogenic response elicited by FGF8b in the CAM [2]: No inhibitory effect; effect on HUVEC proliferation in response to FGF8b (in words) (HUVECs): no significant effect; FGF8b binding (Kd) (FGF8b): nb; mitogenic response of S115 cells to FGF8b or DHT (S115 cells): ineffective
> 3 mM	dramatically reduced	Ac-GRPCG-NH2 [Ac-GRPCG-NH2]	–
2.9 ± 0.55 mM	dramatically reduced	H-ARPCA-NH2 [H-ARPCA-NH2]	–
